ChEMBL document CHEMBL1125844, “Novel non-nucleoside inhibitors of HIV-1 reverse transcriptase. 1. Tricyclic pyridobenzo- and dipyridodiazepinones” (J Med Chem, 1991)
pIC50: −log10 of the molar value.

Tests used:
[1] = target: Human immunodeficiency virus type 1 reverse transcriptase (Human immunodeficiency virus 1, UniProt Q72547); assay: In vitro inhibitory activity against human immunodeficiency virus type 1 (HIV-1) reverse transcriptase (RT)
[2] = target: Human immunodeficiency virus type 1 reverse transcriptase (Human immunodeficiency virus 1) (UniProt Q72547); assay: In vitro inhibitory activity against human immunodeficiency virus type 1 (HIV-1) reverse transcriptase (RT) at a concentration of 10 ug/mL.

SMILES	pIC50 [1]	inhibition [2] [%]
CN1C(=O)c2cccnc2N(C2CCCCC2)c2ncccc21	< 6.00	73
O=C1Nc2c(CO)ccnc2N(C2CC2)c2ncccc21	5.52	94
CCN1c2nc(C)c(C)cc2NC(=O)c2cccnc21	6.39	100
CCN1c2ccccc2N(C)C(=O)c2cc(Cl)cnc21	5.12	91
CCN1c2ncccc2C(=O)N(C)c2cccnc21	6.90	100
Cc1ccc2c(c1)N(C)C(=O)c1c(C)cc(C)nc1N2C	< 6.00	49
CCN1C(=O)c2cccnc2N(CC)c2ccccc21	6.42	99
CC[C@@H](C)N1c2ncccc2NC(=O)c2cccnc21	< 6.00	85
CCN1c2nc(C)ccc2C(=O)N(C)c2cccnc21	< 6.00	65
CCc1ccnc2c1NC(=O)c1cccnc1N2CC	6.96	100
CC[C@H](C)N1c2ncccc2NC(=O)c2cccnc21	< 6.00	88
O=C1Nc2cccnc2Nc2ccccc21	< 6.00	23
CC(C)N1c2ncccc2NC(=O)c2cccnc21	6.23	99
CCN1c2cc([N+](=O)[O-])ccc2N(C)C(=O)c2cc(Br)cnc21	6.05	95
Cc1ccnc2c1NC(=O)c1cccnc1N2C1CC1	–	100
Cc1cccc2c1NC(=O)c1cccnc1N2	< 6.00	77
CCN1c2cccc(C)c2N(C)C(=O)c2cccnc21	6.62	100
CSCN1c2ccccc2N(C)C(=O)c2cccnc21	5.18	84
CCN1c2ccccc2N(C)C(=O)c2cccnc21	6.46	100
CCN(CC)C(=O)c1ccc2c(c1)N(C)C(=O)c1cccnc1N2CC	< 6.00	11
O=C1Nc2cccnc2N(C2CCCC2)c2ncccc21	< 6.00	94
CCN1c2ccc(CNC(=O)C(C)(C)C)cc2N(C)C(=O)c2cccnc21	< 6.00	15
CCN1c2ncccc2C(=O)N(C)c2ccc(C)nc21	6.77	100
CCN1C(=O)c2cccc(C)c2N(CC)c2ncccc21	6.19	99
O=C1Nc2cccnc2N(C2CCC2)c2ncccc21	6.37	99

SMILES	pIC50 [1]	inhibition [2] [%]
CCN1c2ncccc2C(=O)Nc2c(O)ccnc21	< 6.00	94
CN1C(=O)c2cccnc2Nc2ccccc21	< 6.00	43
C=CCN1c2ncccc2C(=O)N(C)c2cccnc21	6.07	99
CN1C(=O)c2cccnc2N(CCO)c2ccccc21	< 6.00	58
CCN1c2ccccc2C(=O)N(C)c2ccccc21	< 6.00	80
CCN1c2ccc(C(=O)O)cc2N(C)C(=O)c2cccnc21	< 6.00	18
CCN1c2ccc(C)cc2C(=O)N(C)c2cccnc21	6.24	99
CCN1c2ncccc2C(=O)Nc2c(OC)ccnc21	< 6.00	96
CCN1c2ncccc2C(=O)N(C)c2cc(C)c(C)nc21	6.62	100
CCN1c2cc(Cl)c(Cl)cc2N(C)C(=O)c2cccnc21	7.21	100
CC(C)(C)OC(=O)CN1C(=O)c2cccnc2Nc2ccccc21	< 6.00	39
CCN1c2ncccc2NC(=O)c2c(C)ccnc21	< 6.00	80
Cc1ccnc2c1NC(=O)c1c(O)ccnc1N2C1CC1	< 6.00	96
CCN1C(=O)c2cccnc2Nc2ccccc21	< 6.00	87
CN1C(=O)c2cccnc2N(CCF)c2ccccc21	6.00	97
CCN1c2ccc(C(N)=O)cc2N(C)C(=O)c2cccnc21	4.57	66
CCN1c2ccc(OC)cc2N(C)C(=O)c2cccnc21	5.68	95
C=CCN1C(=O)c2cccnc2Nc2ccccc21	5.85	96
O=C1c2cccnc2Nc2ccccc2N1CCO	< 6.00	46
CCN1c2ccccc2NC(=O)c2cccnc21	6.42	99
CCN1c2ncc(Cl)cc2C(=O)N(C)c2cccnc21	5.46	87
CN1c2ccccc2NC(=O)c2cccnc21	< 6.00	75
CCN1c2cc(C(F)(F)F)cc(Cl)c2N(C)C(=O)c2cccnc21	6.54	96
CCN1c2ccc(C)c(C)c2N(C)C(=O)c2cccnc21	7.44	99
CCN1c2ccc(Cl)cc2N(C)C(=O)c2cccnc21	6.77	99

SMILES	pIC50 [1]	inhibition [2] [%]
CCN1c2ccc(C(=O)OC)cc2N(C)C(=O)c2cccnc21	5.96	94
CN(C)CCN1C(=O)c2cccnc2N(C2CC2)c2ncccc21	< 6.00	34
CCN1c2ccc([N+](=O)[O-])cc2N(C)C(=O)c2cccnc21	< 6.00	56
C#CCN1c2ncccc2C(=O)N(C)c2cccnc21	< 6.00	94
CCN1c2cc(C)c(C)cc2N(C)C(=O)c2cccnc21	7.40	100
CCN1c2ncccc2C(=O)N(C)c2cc(Cl)cnc21	< 6.00	99
CCN1c2ccccc2N(C)C(=O)c2ccc(F)nc21	5.54	84
CN1C(=O)c2cccnc2N(C(C)(C)C)c2ncccc21	4.96	87
CCN1c2cc([N+](=O)[O-])ccc2N(C)C(=O)c2cccnc21	6.40	99
CSCN1c2ncccc2C(=O)N(C)c2cccnc21	6.07	99
CCCN1c2ncccc2C(=O)N(C)c2cccnc21	6.35	100
CCN1c2ccccc2N(CF)C(=O)c2cccnc21	< 6.00	85
CN1C(=O)c2cccnc2N(CCF)c2ncccc21	5.54	96
CN(C)C(=O)CN1C(=O)c2cccnc2Nc2ccccc21	< 6.00	24
CCN1c2ccc(CN)cc2N(C)C(=O)c2cccnc21	< 6.00	84
CCN1c2ccccc2N(C)C(=O)c2cc(C(F)(F)C(F)(F)F)cnc21	< 6.00	5
CCN1c2ccc(CO)cc2N(C)C(=O)c2cccnc21	< 6.00	78
Cc1cc(C)c2c(n1)Nc1ccccc1C(=O)N2	< 6.00	51
CCN1c2ncccc2C(=O)N(C)c2c(C)ccnc21	5.72	98
CCOC(=O)CN1c2ccccc2N(C)C(=O)c2cccnc21	4.80	56
CCN1c2ncccc2C(=O)N(C)c2cc(C)cnc21	6.12	100
Cc1ccnc2c1N(C)C(=O)c1cccnc1N2C1CC1	< 6.00	96
CC(C)N1c2ccccc2N(C)C(=O)c2cccnc21	6.70	98
CCN1C(=O)c2ccccc2N(CC)c2ncccc21	6.16	96
CCN1c2cc(Cl)ccc2N(C)C(=O)c2cccnc21	6.77	100

SMILES	pIC50 [1]	inhibition [2] [%]
C=CCN1C(=O)c2cccnc2Nc2ccc(Cl)cc21	< 6.00	79
CCOC(=O)N1c2ccccc2N(C)C(=O)c2cccnc21	< 6.00	13
CCN1c2ccc(O)cc2N(C)C(=O)c2cccnc21	< 6.00	47
CCN1c2ncccc2C(=O)N(C)c2cc([N+](=O)[O-])cnc21	< 6.00	64
CCN1c2cc(C(F)(F)F)ccc2N(C)C(=O)c2cccnc21	6.64	97
CCN1c2ncccc2C(=O)N(C)c2cc(N)cnc21	< 6.00	92
Cc1ccc2c(n1)Nc1ccccc1C(=O)N2	< 6.00	46
CCN1c2ncccc2C(=O)Nc2c(Cl)ccnc21	7.02	100
CCN1c2cc(N=[N+]=[N-])ccc2N(C)C(=O)c2cccnc21	6.85	100
CCN1c2ccc(C)cc2N(C)C(=O)c2cccnc21	6.72	100
CCCCN1c2ccccc2N(C)C(=O)c2cccnc21	6.00	81
CC(=O)N1c2cc(C)c(C)cc2N(C)C(=O)c2cccnc21	6.38	96
CCN1c2ccc([N+](=O)[O-])cc2N(C)C(=O)c2cc(Br)cnc21	< 6.00	64
CCN1c2ncccc2C(=O)Nc2c(C)ccnc21	7.46	100
O=C1Nc2cccnc2N(c2ccccc2)c2ncccc21	< 6.00	71
CN1C(=O)c2cccnc2N(C)c2ccccc21	< 6.00	85
CN1C(=O)c2cccnc2N(S(C)(=O)=O)c2ncccc21	< 6.00	77
CN1C(=O)c2ccccc2N(C)c2ccccc21	< 6.00	52
CCN1c2ncccc2NC(=O)c2cccnc21	6.36	99
CCN1c2ncccc2C(=O)N(C)c2cc(Cl)c(N)nc21	6.07	98
CCN1c2ncccc2C(=O)N(C(C)=O)c2cccnc21	6.44	99
CCN1c2cc(C(F)(F)F)cc(Br)c2N(C)C(=O)c2cccnc21	< 6.00	71
CCN1c2ccccc2C(=O)N(C)c2cccnc21	6.30	99
